Reference: patent US9232793B2, “Methods of inhibiting microbial growth using deoxyaldohexoses” (LVMH Recherche, priority 2008, dated 2016)

Tests used:
Assay in all cases: Agar diffusion antimicrobial test, MIC determination
Type in all cases: cell-based
[1] = tested on: Aspergillus niger IP 1431.83; settings: A. niger
Method: (§1) The culture medium at pH 6, pH 7 and pH 8, inoculated beforehand with the test strains, is poured into Petri dishes, with one pH and one strain per dish. After solidification, 100 μl are deposited for each of the concentrations of the test substance, as well as a solvent control and a positive control. After incubation, the inhibition diameter is measured after diffusion of the test product into the agar, and there is deduced therefrom the minimum bacteriostatic concentration (MIC), which is the lowest concentration of product inhibiting the multiplication of the microbes. The test strains are the following: • Aspergillus niger IP 1431.83, • Candida albicans IP 48.72, • Enterococcus hirae CIP 58.55, • Staphylococcus aureus CIP 4.83, • Burkholdena cepacia CIP 103924, • Pseudomonas aeruginosa CIP 82.1118. For each strain, 120 ml of each of the three Mueller Hinton media pH 6, pH 7 and pH 8 are inoculated with 1.2 ml of each suspension of microbe having a titre of 10^7 CFU/ml in order to obtain a titre equal to 10^5 CFU/ml. 15 ml are poured into each dish, with one dish per medium and per strain. After solidification, three steel cylinders are placed at the surface of each dish. 100 mg (approximately) of the powder consisting of the test alkyl glycoside are taken up in 1 ml of methanol (solution A at 10%). Next, the concentration range is prepared as described below: • Solution B1 at 1%: 300 μl of solution A+2.7 ml of sterile water, • Solution B2 at 0.5%: 300 μl of solution A+5.7 ml of sterile water, • Solution B3 at 0.1%: 1 ml of solution B1+9 ml of sterile water, • Solution B4 at 0.05%: 1 ml of solution B2+9 ml of sterile water. Only solutions B2, B3 and B4 are tested during the trial. 100 μl (pH 6, pH 7 and pH 8) of the following solutions are introduced into each cylinder: • Methanol control (prepared for each strain at pH 7), • Solution B4 at 0.05%, • Solution B3 at 0.1%, • Solution B2 at 0.5%. Incubation at 37° C.±1° C. for 24 hours (48 h for Enterococcus hirae). The inhibition of growth of the microbes leads to measurement, using a vernier caliper, in millimeters, of an inhibition diameter after diffusion of the test product into the agar. The minimum bacteriostatic concentration (MIC) is given by the lowest concentration of product which inhibits the multiplication of the microbes. In the case where the highest concentration ([…]) is not active, this is noted (>500). The tests were carried out on various strains at pH 7, for alkyl glycoside concentrations equal to 0.05%, 0.1% and 0.5% by weight.

[2] = tested on: Burkholdena cepacia CIP 103924; settings: B. cepacia
Method: as §1

[3] = tested on: Candida albicans IP 48.72; settings: C. albicans
Method: as §1

[4] = tested on: Enterococcus hirae CIP 58.55; settings: E. hirae
Method: as §1

[5] = tested on: Pseudomonas aeruginosa CIP 82.1118; settings: P. aeruginosa
Method: as §1

[6] = tested on: Staphylococcus aureus CIP 4.83; settings: S. aureus
Method: as §1

MIC ([1]; pH 7) [µg/mL] | MIC ([1]; pH 7, value in brackets) [µM] | MIC ([2]; pH 7) [µg/mL] | MIC ([2]; pH 7, value in brackets) [µM] | MIC ([3]; pH 7) [µg/mL] | MIC ([3]; pH 7, value in brackets) [µM] | MIC ([4]; pH 7) [µg/mL] | MIC ([4]; pH 7, value in brackets) [µM] | MIC ([5]; pH 7) [µg/mL] | MIC ([5]; pH 7, value in brackets) [µM] | MIC ([6]; pH 7) [µg/mL] | MIC ([6]; pH 7, value in brackets) [µM] | SMILES
50 | 181 | > 500 | > 1810 | 100 | 362 | 50 | 181 | > 500 | > 1810 | 50 | 181 | CCCCCCCCO[C@H]1O[C@@H](C)[C@@H](O)[C@@H](O)[C@@H]1O [Fuc-8, octyl beta-L-fucoside]
50 | 150 | > 500 | > 1500 | > 500 | > 1500 | 50 | 150 | > 500 | > 1500 | 50 | 150 | CCCCCCCCCCCCO[C@H]1O[C@@H](C)[C@@H](O)[C@@H](O)[C@@H]1O [Fuc-12, dodecyl beta-L-fucoside]
50 | 181 | 100 | 362 | 100 | 362 | 50 | 181 | 100 | 362 | 50 | 181 | CCCCCCCCOC1O[C@@H](C)[C@H](O)[C@@H](O)[C@H]1O (stereo partly drawn) [Rha-8, octyl L-rhamnoside]
50 | 150 | 100 | 301 | 50 | 150 | 50 | 150 | 50 | 150 | 50 | 150 | CCCCCCCCCCCCOC1O[C@@H](C)[C@H](O)[C@@H](O)[C@H]1O (stereo partly drawn) [Rha-12, dodecyl L-rhamnoside]
